Experimental data reported in US9359378B2, “Substituted oxazolo[3,4-a]pyrazines as pharmaceutcals” (BIOLAB SANUS FARMACÊUTICA LTDA., priority 2014, dated 2016).

Assays:
[1] = test system: rabbit's corpus cavernosum; experiment: Relaxing effect in isolated rabbit's corpus cavernosum strips pre-contracted with phenylephrine (isometric tension); parameters: species or system New Zealand White rabbits; settings: for tissue relaxation of phenylephrine-contracted corpus cavernosum: 1 μM compound, contraction induced by 1 μM phenylephrine (PE), FIGS. 8-10; for percentage of relaxation in rabbit's corpus cavernosum: FIGS. 12 and 13
Experimental: For this study, New Zealand White rabbits (2 to 3.5 kg) were used to obtain penile tissue which was excised and transferred to a chilled Krebs solution. For this study, we used cavernosum strips (CC) of the penile tissue of New Zealand White rabbits. The strips were mounted in 10 ml tissue incubation chambers containing Krebs solution at 37° C., pH occurring between 7.3 and 7.5; continuously bubbled with a mixture of 95% oxygen (O2) and 5% carbon dioxide (CO2). An initial tension of 10 mN were applied on the tissues, followed by a 60 minute stabilization period. Changes in tension (isometric force) were obtained using isometric transducers (ADInstruments, Australia) and recorded in a data acquisition system PowerLab 4/30 (Chart Software, version 7.3.7, ADInstruments, MA, USA for BL-230 and version 7.0 ADInstruments, MA for the BL-236). […] Cumulative curve responses to the concentration of BL-230 compounds and tadalafil (0.001 to 10 μM) were obtained in the pre-contracted rabbit corpus cavernosum strips with 1 μM PE.

[2] = target: T1, PDE11A4 (Homo sapiens, UniProt Q9HCR9); experiment: PDE11A4 enzyme inhibition (HTRF, cAMP substrate); type: biochemical; settings: human recombinant enzyme (Sf9); FIGS. 14 and 15; test concentration not given
T1 construct: host or cells: Sf9
Description: (§1) The effects of the BL-230 and BL-236 compounds on the activity of the human enzymes PDE2A1, PDE3A, PDE4A1A, PDE4B1, PDE7A, PDE8A1, and PDE10A2 and PDE11A4 were quantified by measuring the production of adenosine 5′-monophosphate (5′AMP) from cyclic adenosine monophosphate (cAMP), with human recombinant enzyme expressed in Sf9 cells and the detection method was by using HTRF®.
(§2) The test compound, the reference compound or water (control) were mixed with the enzyme (the enzymes and their amounts used are described in Table 1) in a buffer containing 44.4 mM Tris-HCl, 5.28 mM MgCl2, 2.64 mM DTT and 0.044% Tween® 20 (pH 7.8). Then, the reaction was initiated by the addition of 40 nM of cAMP substrate and the mixture was incubated for 30 minutes at room temperature. For basal control measurements, the enzyme was omitted from the reaction mixture. The fluorescence acceptor (Dye2 labeled cAMP) and fluorescence donor (anti-cAMP antibody labeled with europium cryptate) were added in the presence of 1 mM IBMX. After 60 minutes, the fluorescence corresponding to the amount of transfer residual cAMP was measured at λex=337 nm, λem=620 nm and λem=665 nm using a microplate reader (RubyStar, BMG). The enzyme activity was determined by the signal division measured at 665 nm, by the measured signal at 620 nm (right). The results were expressed as a inhibition percentage of the control enzyme activity. […]

[3] = target: T2, PDE4B1 (Homo sapiens, UniProt Q07343); experiment: PDE4B1 enzyme inhibition (HTRF, cAMP substrate); type: biochemical; settings: human recombinant enzyme (Sf9); FIGS. 14 and 15; test concentration not given
T2 construct: host or cells: Sf9
Description: as §1, §2

[4] = strips pre-contracted with 1 μM PE

T1 sequence (Q9HCR9 whole entry): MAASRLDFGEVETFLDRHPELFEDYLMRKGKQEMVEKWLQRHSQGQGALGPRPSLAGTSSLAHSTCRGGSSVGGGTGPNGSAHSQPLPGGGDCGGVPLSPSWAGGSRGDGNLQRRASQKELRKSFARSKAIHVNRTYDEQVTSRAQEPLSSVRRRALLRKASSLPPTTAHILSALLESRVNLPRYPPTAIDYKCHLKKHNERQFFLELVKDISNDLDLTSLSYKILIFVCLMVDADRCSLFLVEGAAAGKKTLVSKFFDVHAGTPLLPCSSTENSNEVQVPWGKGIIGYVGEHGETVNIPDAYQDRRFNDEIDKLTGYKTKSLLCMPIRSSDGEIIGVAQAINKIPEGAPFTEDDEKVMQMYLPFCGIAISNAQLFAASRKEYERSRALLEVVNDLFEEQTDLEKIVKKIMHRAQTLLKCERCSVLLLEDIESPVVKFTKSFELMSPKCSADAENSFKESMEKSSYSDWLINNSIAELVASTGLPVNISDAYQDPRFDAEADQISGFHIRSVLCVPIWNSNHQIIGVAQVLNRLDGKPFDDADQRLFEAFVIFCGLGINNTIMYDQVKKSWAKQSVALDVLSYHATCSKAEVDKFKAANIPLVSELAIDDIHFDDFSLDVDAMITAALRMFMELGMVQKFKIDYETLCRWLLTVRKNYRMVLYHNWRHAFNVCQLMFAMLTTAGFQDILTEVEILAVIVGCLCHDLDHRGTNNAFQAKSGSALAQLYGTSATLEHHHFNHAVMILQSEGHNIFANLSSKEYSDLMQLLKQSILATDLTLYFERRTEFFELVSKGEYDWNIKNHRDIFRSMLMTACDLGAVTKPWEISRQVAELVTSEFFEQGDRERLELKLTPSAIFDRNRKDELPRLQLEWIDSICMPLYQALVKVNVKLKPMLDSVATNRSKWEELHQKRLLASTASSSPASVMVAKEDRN
T2 sequence (Q07343 whole entry): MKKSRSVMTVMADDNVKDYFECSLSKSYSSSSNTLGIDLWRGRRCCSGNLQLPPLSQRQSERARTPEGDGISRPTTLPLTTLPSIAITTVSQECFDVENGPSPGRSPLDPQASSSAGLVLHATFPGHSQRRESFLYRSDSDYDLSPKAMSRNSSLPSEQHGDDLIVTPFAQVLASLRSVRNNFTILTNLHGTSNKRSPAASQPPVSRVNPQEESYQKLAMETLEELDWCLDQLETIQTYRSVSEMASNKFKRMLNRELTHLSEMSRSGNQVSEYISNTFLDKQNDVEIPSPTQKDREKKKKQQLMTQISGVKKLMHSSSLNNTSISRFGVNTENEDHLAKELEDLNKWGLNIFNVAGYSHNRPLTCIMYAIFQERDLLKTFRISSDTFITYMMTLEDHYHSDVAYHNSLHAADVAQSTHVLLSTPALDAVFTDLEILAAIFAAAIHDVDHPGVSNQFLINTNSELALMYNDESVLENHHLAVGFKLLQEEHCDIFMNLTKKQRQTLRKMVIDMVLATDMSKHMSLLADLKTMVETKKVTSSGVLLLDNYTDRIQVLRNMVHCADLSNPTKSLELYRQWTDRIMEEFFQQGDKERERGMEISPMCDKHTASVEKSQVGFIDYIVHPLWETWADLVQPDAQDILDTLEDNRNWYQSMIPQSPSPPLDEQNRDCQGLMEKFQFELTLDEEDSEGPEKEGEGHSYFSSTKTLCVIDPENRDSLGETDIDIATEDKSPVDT

Compound: O=C1C2=C(c3c[nH]c4ccccc34)OC(c3ccc4c(c3)OCO4)N2C(=O)CN1CCO (stereo not drawn) [BL-230, 3-(benzo[d][1,3]dioxol-5yl)-7-(2-hydroxyethyl)-1-(1H-indol-3-yl)-6,7-dihydro-3H-oxazolo[3,4-a]pyrazine-5,8-dione]
- tissue relaxation of phenylephrine-contracted corpus cavernosum [1]: produced tissue relaxation shape similar to that of tadalafil
- cumulative concentration-response relaxation ([1]; 0.001 to 10 μM, strips pre-contracted with 1 μM PE, FIG. 11): dose-dependent relaxation similar to that observed for tadalafil
- percentage of relaxation in rabbit's corpus cavernosum [1, 4]: 78.47%
- inhibition of PDE11A4 enzyme activity [2]: 75%
- inhibition of PDE4B1 enzyme activity [3]: did not inhibit

Compound: C[C@@H](CO)N1CC(=O)N2C(=C(c3c[nH]c4ccccc34)OC2c2ccc3c(c2)OCO3)C1=O (stereo partly drawn) [BL-236, 3-(benzo[d][1,3]dioxol-5yl)-7-((S)1-hydroxypropan-2yl)-1-(1H-indol-3-yl)-6,7-dihydro-3H-oxazolo[3,4-a]pyrazine-5,8-dione]
- tissue relaxation of phenylephrine-contracted corpus cavernosum [1]: produced tissue relaxation shape similar to that of tadalafil
- percentage of relaxation in rabbit's corpus cavernosum [1, 4]: 93.05%
- inhibition of PDE11A4 enzyme activity [2]: 80%
- inhibition of PDE4B1 enzyme activity [3]: did not inhibit
